Experimental data: patent US6525001B1, “Substituted pyrimidine and pyridine herbicides” (Mid-American Commercialization Corporation, priority 1997, dated 2003)

Key:
Type in all cases: in vivo
Design in all cases: key: 0 is no effect; 10 is complete control
[1] = test system: rice (Oryza sativa); experiment: Test B flood test
Method in brief: (§1)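 Plants were grown to the 2-leaf stage before treatment with test chemical, then held in a greenhouse for twelve to sixteen days. Injury was visually rated against untreated controls on a 0–10 scale, where 0 is no effect and 10 is complete control.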

[2] = test system: duck salad (Heteranthera limosa); experiment: Test B flood test
Method in brief: as §1

[3] = test system: smallflower flatsedge (Cyperus difformis); experiment: Test B flood test
Method in brief: as §1

[4] = test system: bamyardgrass (Echinochloa crus-galli); experiment: Test B flood test
Method in brief: as §1

[5] = test system: velvetleaf (Abutilon theophrasti); experiment: Test B pre-/postemergence
Method in brief: (§2)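 Seeds were planted and sprayed preemergence, while plants at 2 to 18 cm (1- to 4-leaf stage) were sprayed postemergence at the same time, with test chemical in a non-phytotoxic solvent mixture containing surfactant. After twelve to sixteen days in a greenhouse, injury was rated visually against untreated controls on a 0–10 scale.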

[6] = test system: bedstraw (Galium aparine); experiment: Test B pre-/postemergence
Method in brief: as §2

[7] = test system: corn (Zea mays); experiment: Test B pre-/postemergence
Method in brief: as §2

[8] = test system: momingglory (Ipomoea hederacea); experiment: Test B pre-/postemergence
Method in brief: as §2

[9] = test system: wheat (Triticum aestivum); experiment: Test B pre-/postemergence
Method in brief: as §2

[10] = test system: cocklebur (Xanthium strumarium); experiment: Test B pre-/postemergence
Method in brief: as §2

[11] = test system: rape (Brassica napus); experiment: Test B pre-/postemergence
Method in brief: as §2

[12] = test system: broadleaf signalgrass (Brachiaria decumbens); experiment: Test B pre-/postemergence
Method in brief: as §2

[13] = test system: pigweed (Amaranthus retroflexus); experiment: Test B pre-/postemergence
Method in brief: as §2

[14] = test system: giant foxtail (Setaria faberii); experiment: Test B pre-/postemergence
Method in brief: as §2

[15] = test system: sugar beet (Beta vulgaris); experiment: Test B pre-/postemergence
Method in brief: as §2

[16] = Rate 62 g/ha, Postemergence (flood test)
[17] = Rate 125 g/ha, Postemergence section (flood test species)
[18] = Rate 250 g/ha, Postemergence (flood test species)
[19] = Rate 500 g/ha, Postemergence (flood test species)
[20] = Preemergence, Rate 62 g/ha, scale of 0 to 10
[21] = Rate 125 g/ha, Postemergence, flood test
[22] = Rate 250 g/ha, Postemergence (so in the source)

Cc1cnc(-n2ccc(C(F)(F)C(F)(F)F)n2)nc1C(=O)c1cccc(C(F)(F)F)c1 [Compound 68]
5: S. Flatsedge plant response rating [3, 16] | Bedstraw plant response rating ([6]; Rate 62 g/ha, Postemergence) | Plant response rating, Bedstraw ([6]; Rate 125 g/ha, Preemergence) | Plant response rating, Morningglory ([8]; Rate 250 g/ha, Preemergence) | B. signalgrass plant response rating ([12]; Rate 62 g/ha, Preemergence) | Plant response rating, B. signalgrass ([12]; Rate 500 g/ha, Postemergence)
10: Plant response rating, Bedstraw ([6]; Rate 500 g/ha, Postemergence) | Plant response rating, Morningglory ([8]; Rate 250 g/ha, Postemergence) | Plant response rating, Morningglory ([8]; Rate 500 g/ha, Postemergence) | Plant response rating, B. signalgrass ([12]; Rate 500 g/ha, Preemergence) | Redroot pigweed plant response rating ([13]; Rate 125 g/ha, Postemergence) | Plant response rating, Redroot pigweed ([13]; Rate 250 g/ha, Postemergence) | Plant response rating, Redroot pigweed ([13]; Rate 250 g/ha, Preemergence) | Plant response rating, Redroot pigweed ([13]; Rate 500 g/ha, Postemergence) | Plant response rating, Redroot pigweed ([13]; Rate 500 g/ha, Preemergence) | Plant response rating, Giant foxtail ([14]; Rate 500 g/ha, Preemergence) | Sugarbeets plant response rating ([15]; Rate 62 g/ha, Postemergence) | Sugarbeets plant response rating ([15]; Rate 125 g/ha, Postemergence) | Plant response rating, Sugarbeets ([15]; Rate 125 g/ha, Preemergence) | Plant response rating, Sugarbeets ([15]; Rate 250 g/ha, Postemergence) | Plant response rating, Sugarbeets ([15]; Rate 250 g/ha, Preemergence) | Plant response rating, Sugarbeets ([15]; Rate 500 g/ha, Postemergence) | Plant response rating, Sugarbeets ([15]; Rate 500 g/ha, Preemergence)
4: Plant response rating, Barnyardgrass [4, 18] | Plant response rating, Barnyardgrass [4, 19] | Plant response rating, Wheat ([9]; Rate 500 g/ha, Postemergence) | Plant response rating, Wheat ([9]; Rate 500 g/ha, Preemergence) | Plant response rating, Rape ([11]; Rate 250 g/ha, Preemergence)
1: Rice plant response rating [1, 17] | Ducksalad plant response rating [2, 17] | Corn plant response rating ([7]; Rate 62 g/ha, Postemergence) | Corn plant response rating ([7]; Rate 125 g/ha, Postemergence) | Plant response rating, Corn ([7]; Rate 125 g/ha, Preemergence) | Plant response rating, Corn ([7]; Rate 250 g/ha, Preemergence) | Plant response rating, Corn ([7]; Rate 500 g/ha, Preemergence) | Plant response rating, Wheat [9, 20] | Plant response rating, Wheat ([9]; Rate 125 g/ha, Preemergence) | Giant foxtail plant response rating ([14]; Rate 62 g/ha, Postemergence)
3: Plant response rating, Rice [1, 18] | Plant response rating, Rice [1, 19] | Plant response rating, Ducksalad [2, 19] | Barnyardgrass plant response rating [4, 17] | Plant response rating, Bedstraw [6, 20] | Plant response rating, Morningglory [8, 20] | Plant response rating, Morningglory ([8]; Rate 125 g/ha, Preemergence) | Cocklebur plant response rating ([10]; Rate 62 g/ha, Postemergence) | Plant response rating, Rape ([11]; Rate 125 g/ha, Preemergence) | B. signalgrass plant response rating ([12]; Rate 125 g/ha, Postemergence) | Plant response rating, B. signalgrass ([12]; Rate 250 g/ha, Postemergence) | Plant response rating, Giant foxtail [14, 20] | Plant response rating, Giant foxtail ([14]; Rate 500 g/ha, Postemergence)
2: Plant response rating, Ducksalad [2, 18] | Barnyardgrass plant response rating [4, 16] | Plant response rating, Velvetleaf [5, 20] | Plant response rating, Corn ([7]; Rate 250 g/ha, Postemergence) | Plant response rating, Corn ([7]; Rate 500 g/ha, Postemergence) | Morningglory plant response rating ([8]; Rate 62 g/ha, Postemergence) | Wheat plant response rating ([9]; Rate 62 g/ha, Postemergence) | Wheat plant response rating ([9]; Rate 125 g/ha, Postemergence) | Plant response rating, Wheat ([9]; Rate 250 g/ha, Postemergence) | Plant response rating, Wheat ([9]; Rate 250 g/ha, Preemergence) | Plant response rating, Cocklebur ([10]; Rate 250 g/ha, Preemergence) | Plant response rating, Rape [11, 20] | B. signalgrass plant response rating ([12]; Rate 62 g/ha, Postemergence) | Giant foxtail plant response rating ([14]; Rate 125 g/ha, Postemergence) | Plant response rating, Giant foxtail ([14]; Rate 250 g/ha, Postemergence)
8: Plant response rating, Velvetleaf ([5]; Rate 500 g/ha, Postemergence) | Plant response rating, Velvetleaf ([5]; Rate 500 g/ha, Preemergence) | Morningglory plant response rating ([8]; Rate 125 g/ha, Postemergence) | Plant response rating, Cocklebur ([10]; Rate 500 g/ha, Preemergence) | Plant response rating, Rape ([11]; Rate 500 g/ha, Preemergence) | Plant response rating, B. signalgrass ([12]; Rate 125 g/ha, Preemergence) | Plant response rating, Redroot pigweed [13, 20]
6: Velvetleaf plant response rating ([5]; Rate 62 g/ha, Postemergence) | Bedstraw plant response rating ([6]; Rate 125 g/ha, Postemergence) | Plant response rating, Bedstraw ([6]; Rate 250 g/ha, Preemergence) | Plant response rating, Bedstraw ([6]; Rate 500 g/ha, Preemergence) | Rape plant response rating ([11]; Rate 62 g/ha, Postemergence) | Rape plant response rating ([11]; Rate 125 g/ha, Postemergence) | Plant response rating, Giant foxtail ([14]; Rate 125 g/ha, Preemergence)
9: Plant response rating, Bedstraw ([6]; Rate 250 g/ha, Postemergence) | Plant response rating, Morningglory ([8]; Rate 500 g/ha, Preemergence) | Plant response rating, B. signalgrass ([12]; Rate 250 g/ha, Preemergence) | Redroot pigweed plant response rating ([13]; Rate 62 g/ha, Postemergence) | Plant response rating, Redroot pigweed ([13]; Rate 125 g/ha, Preemergence) | Plant response rating, Giant foxtail ([14]; Rate 250 g/ha, Preemergence) | Plant response rating, Sugarbeets [15, 20]
0: Rice plant response rating [1, 16] | Ducksalad plant response rating [2, 16] | Plant response rating, Corn [7, 20] | Plant response rating, Cocklebur [10, 20]
7: S. Flatsedge plant response rating [3, 17] | Plant response rating, S. Flatsedge [3, 18] | Plant response rating, S. Flatsedge [3, 19] | Velvetleaf plant response rating ([5]; Rate 125 g/ha, Postemergence) | Plant response rating, Velvetleaf ([5]; Rate 125 g/ha, Preemergence) | Plant response rating, Velvetleaf ([5]; Rate 250 g/ha, Postemergence) | Plant response rating, Velvetleaf ([5]; Rate 250 g/ha, Preemergence) | Plant response rating, Cocklebur ([10]; Rate 250 g/ha, Postemergence) | Plant response rating, Cocklebur ([10]; Rate 500 g/ha, Postemergence) | Plant response rating, Rape ([11]; Rate 500 g/ha, Postemergence)

Cc1cnc(-n2cnc(C(F)(F)F)c2)nc1Cc1cccc(C(F)(F)F)c1 [Compound 44]
0: Corn plant response rating ([7]; Rate 62 g/ha, Preemergence) | Wheat plant response rating ([9]; Rate 62 g/ha, Preemergence)
5: Plant response rating, Rice [1, 16] | Bedstraw plant response rating ([6]; Rate 125 g/ha, Preemergence) | Cocklebur plant response rating ([10]; Rate 125 g/ha, Preemergence) | Plant response rating, B. signalgrass ([12]; Rate 250 g/ha, Postemergence) | Giant foxtail plant response rating ([14]; Rate 125 g/ha, Preemergence)
9: Plant response rating, Ducksalad [2, 18] | Plant response rating, S. Flatsedge [3, 16] | S. Flatsedge plant response rating [3, 17] | Plant response rating, S. Flatsedge [3, 18] | Plant response rating, Velvetleaf ([5]; Rate 250 g/ha, Postemergence) | Plant response rating, Bedstraw ([6]; Rate 125 g/ha, Postemergence) | Plant response rating, Bedstraw ([6]; Rate 250 g/ha, Postemergence) | Morningglory plant response rating ([8]; Rate 125 g/ha, Preemergence) | Plant response rating, Cocklebur ([10]; Rate 125 g/ha, Postemergence) | Plant response rating, Cocklebur ([10]; Rate 250 g/ha, Postemergence) | Plant response rating, Rape ([11]; Rate 62 g/ha, Postemergence) | Plant response rating, Redroot pigweed ([13]; Rate 62 g/ha, Postemergence) | Redroot pigweed plant response rating ([13]; Rate 125 g/ha, Preemergence) | Plant response rating, Giant foxtail ([14]; Rate 250 g/ha, Postemergence) | Plant response rating, Giant foxtail [14, 22] | Sugarbeets plant response rating ([15]; Rate 62 g/ha, Preemergence)
7: Plant response rating, Rice [1, 18] | Plant response rating, Ducksalad [2, 21] | Redroot pigweed plant response rating ([13]; Rate 62 g/ha, Preemergence) | Giant foxtail plant response rating ([14]; Rate 125 g/ha, Postemergence)
4: Plant response rating, Ducksalad [2, 16] | Plant response rating, Barnyardgrass [4, 21] | Plant response rating, Barnyardgrass [4, 18] | Bedstraw plant response rating ([6]; Rate 62 g/ha, Preemergence) | Rape plant response rating ([11]; Rate 62 g/ha, Preemergence) | Plant response rating, B. signalgrass ([12]; Rate 125 g/ha, Postemergence) | Giant foxtail plant response rating ([14]; Rate 62 g/ha, Preemergence)
1: Corn plant response rating ([7]; Rate 125 g/ha, Preemergence) | Plant response rating, Corn [7, 22] | Plant response rating, Wheat ([9]; Rate 125 g/ha, Preemergence)
6: Rice plant response rating [1, 17] | B. signalgrass plant response rating ([12]; Rate 62 g/ha, Preemergence)
10: Plant response rating, Velvetleaf ([5]; Rate 125 g/ha, Preemergence) | Plant response rating, Velvetleaf [5, 22] | Plant response rating, Bedstraw [6, 22] | Plant response rating, Morningglory ([8]; Rate 62 g/ha, Postemergence) | Plant response rating, Morningglory ([8]; Rate 250 g/ha, Postemergence) | Plant response rating, Morningglory [8, 22] | Rape plant response rating ([11]; Rate 125 g/ha, Postemergence) | Plant response rating, Rape ([11]; Rate 250 g/ha, Postemergence) | Plant response rating, Rape [11, 22] | Redroot pigweed plant response rating ([13]; Rate 125 g/ha, Postemergence) | Plant response rating, Redroot pigweed ([13]; Rate 250 g/ha, Postemergence) | Plant response rating, Redroot pigweed [13, 22] | Plant response rating, Sugarbeets ([15]; Rate 62 g/ha, Postemergence) | Sugarbeets plant response rating ([15]; Rate 125 g/ha, Postemergence) | Plant response rating, Sugarbeets ([15]; Rate 125 g/ha, Preemergence) | Plant response rating, Sugarbeets ([15]; Rate 250 g/ha, Postemergence) | Plant response rating, Sugarbeets [15, 22]
3: Plant response rating, Barnyardgrass [4, 16] | Plant response rating, Corn ([7]; Rate 62 g/ha, Postemergence) | Plant response rating, Corn ([7]; Rate 125 g/ha, Postemergence) | Plant response rating, Corn ([7]; Rate 250 g/ha, Postemergence) | Wheat plant response rating ([9]; Rate 62 g/ha, Postemergence) | Wheat plant response rating ([9]; Rate 125 g/ha, Postemergence) | Plant response rating, Wheat ([9]; Rate 250 g/ha, Postemergence) | Plant response rating, Wheat [9, 22] | Plant response rating, B. signalgrass ([12]; Rate 62 g/ha, Postemergence)
2: Cocklebur plant response rating ([10]; Rate 62 g/ha, Preemergence) | Plant response rating, Giant foxtail ([14]; Rate 62 g/ha, Postemergence)
8: Plant response rating, Velvetleaf ([5]; Rate 62 g/ha, Postemergence) | Velvetleaf plant response rating ([5]; Rate 62 g/ha, Preemergence) | Velvetleaf plant response rating ([5]; Rate 125 g/ha, Postemergence) | Plant response rating, Bedstraw ([6]; Rate 62 g/ha, Postemergence) | Morningglory plant response rating ([8]; Rate 62 g/ha, Preemergence) | Plant response rating, Cocklebur ([10]; Rate 62 g/ha, Postemergence) | Plant response rating, Cocklebur [10, 22] | Rape plant response rating ([11]; Rate 125 g/ha, Preemergence) | B. signalgrass plant response rating ([12]; Rate 125 g/ha, Preemergence) | Plant response rating, B. signalgrass ([12]; Rate 250 g/ha, Postemergence as printed in head r139 (second section for compounds 26-50))
